Like-named read-outs stand apart in the source and are kept apart here.
Experiments:
Type in all cases: cell-based
[1] = tested on: SARS-CoV-2 virus (hCoV-19/Egypt/NRC-03/2020); test: microbe, parasite or virus in culture
MTT cytotoxicity assay = conditions: African green monkey
Procedure: (§1) To assess the half maximal cytotoxic concentration (CC50), stock solutions of the test compounds were prepared in 10% DMSO in ddH2O and diluted further to the working solutions with DMEM. The cytotoxic activity of the extracts was tested in Vero E6 cells by using the 3-(4,5-dimethylthiazol-2-yl)-2,5-diphenyltetrazolium bromide (MTT) method with minor modifications. Briefly, the cells were seeded in 96-well plates (100 µL/well at a density of 3 × 10^5 cells/mL) and incubated for 24 h at 37 °C in 5%CO2. After 24 h, cells were treated with various concentrations of the tested compounds in triplicates. 24 h later, the supernatant was discarded, and cell monolayers were washed with sterile 1x phosphate buffer saline (PBS) 3 times and MTT solution (20 µL of 5 mg/mL stock solution) was add to each well and incubated at 37 °C for 4 h followed by medium aspiration. In each well, the formed formazan crystals were dissolved with 200 µL of acidified isopropanol (0.04 M HCl in absolute isopropanol = 0.073 mL HCL in 50 mL isopropanol). Absorbance of formazan solutions was measured at λ max 540 nm with 620 nm as a reference wavelength using a multi-well plate reader. The percentage of cytotoxicity compared to the untreated cells was determined with the following equation.

Vero E6 cells = test: MTT cytotoxicity assay; conditions: Vero E6 cells, MTT, 24 h treatment
Procedure: as §1

[2] = Severe acute respiratory syndrome coronavirus 2, Vero C1008, 72 h, read-out: IC50 against SARS-CoV-2
[3] = Vero E6 cells, MTT, 24 h treatment, read-out: CC50
[4] = Vero E6 cells, MTT, 24 h treatment, read-out: CC50 (Figure 2)
[5] = Severe acute respiratory syndrome coronavirus 2, Vero C1008, 72 h, read-out: IC50 against SARS-CoV-2 (Figure 2)

SMILES	selectivity index (SI = CC50/IC50) [1]	IC50 [1, 2] [µM]	CC50 at 24 h (MTT cytotoxicity assay; [3]) [µM]	CC50 at 24 h (MTT cytotoxicity assay; [4]) [µM]	IC50 [1, 5] [µM]	other results
COc1cc(OC)c2c(O)c3c(=O)cc(C)oc3c(-c3c(OC)cc4cc5oc(C)cc(=O)c5c(O)c4c3OC)c2c1 [Aurasperone A (3), aurasperone A]	2641.5	12.2	32400	32400	–	–
COc1cc(OC)c2c(c1)cc(O)c1c(=O)cc(C)oc12 [Flavasperone (1), flavasperone]	–	–	–	189	204	–
COc1cc(OC)c2c(O)c3c(=O)cc(C)oc3c(-c3c(OC)cc4cc(O)c5c(=O)cc(C)oc5c4c3OC)c2c1 [Fonsecinone A (4), fonsecinone A]	4.7	61.1	–	288	61.6	–
COc1cc(OC)c2c(O)c3c(=O)cc(C)oc3c(-c3c(OC)cc(OC)c4c(O)c5c(=O)cc(C)oc5cc34)c2c1 [Rubasperone B (6), rubasperone B]	–	–	–	–	–	IC50 ([1]; Severe acute respiratory syndrome coronavirus 2, Vero C1008, Vero E6 cells infected with hCoV-19/Egypt/NRC-03/2020, 72 h, read-out: IC50 against SARS-CoV-2 (Figure 2)): 105 µM; CC50 at 24 h (MTT cytotoxicity assay): 181 µM
CCC(CC)COC(=O)[C@H](C)N[P@](=O)(OC[C@H]1O[C@@](C#N)(c2ccc3c(N)ncnn23)[C@H](O)[C@@H]1O)Oc1ccccc1 [remdesivir, reference compound]	–	–	415	–	–	selectivity index (SI = CC50/IC50) ([1]; CC50 in Vero E6 cells / IC50 against SARS-CoV-2): 41.07; IC50 ([1]; Severe acute respiratory syndrome coronavirus 2, Vero C1008, Vero E6 cells infected with hCoV-19/Egypt/NRC-03/2020, 72 h, CPE reduction by 50%, read-out: IC50 against SARS-CoV-2): 10.1 µM; CC50 (Vero E6 cells): 415 µM

— publication PMC8949533, “Aurasperone A Inhibits SARS CoV-2 In Vitro: An Integrated In Vitro and In Silico Study” (Marine Drugs, 2022)
